Results taken from patent US20090318465A1, “METHOD FOR IDENTIFYING COMPOUNDS THAT ACT AS INSULIN-SENSITIZERS” (priority 2006, published 2009).

Key:
[1] = tested on: dexamethasone treated insulin resistant 3T3-L1 adipocytes; assay: Insulin resistance assay (IR assay), 14C-2-deoxyglucose uptake; type: cell-based, mouse
Excerpt: A suitable insulin resistance assay includes screening of compounds which act as insulin-sensitizers using chronically dexamethasone treated 3T3-L1 adipocytes as an in vitro model. This is a known model for studying insulin signaling and insulin resistance. Chronically dexamethasone treated 3T3-L1 adipocytes serve as a valid in vitro model of insulin resistance resembling diabetes patients.
In an embodiment, the method according to the present invention includes screening compounds identified as active in the phenotype-based assay against dexamethasone treated insulin resistant adipocytes. For example, the method can include applying actives from the insulin sensitivity assay at a concentration of 1-10 μM to the insulin resistant adipocytes for 1-4 days. The adipocytes were previously prepared for the assay by long term exposure to dexamethasone, for example, at 100 nM for about 24-48 hours.
The method can also include determining whether the compounds enhance glucose uptake in the insulin resistant adipocytes by more than 50% above that enhanced by insulin. The method can then include selecting compounds as active, if they caused 1.5 fold or more increase in glucose uptake compared to insulin treated adipocytes. Glucose uptake can be measured by any of a variety of known methods, such as measuring uptake of ^14C-labeled 2-deoxyglucose, a non metabolisable analogue of D-Glucose.
The assay was designed as in the reference, British Journal of Pharmacology, 130, 351-58, 2000, which is incorporated herein by reference for disclosure of the assay.
The solution of test compound (10 μM/mL) was prepared in DMSO.
Rosiglitazone (0.1 μM in DMSO) was used as standard.
Differentiation into adipocytes was induced by known methods as described below. (J. Biol. Chem., 260, 2646-2652, 1985, which is incorporated herein by reference for disclosure of the induction).
Culture medium containing […] 1-methyl-3-isobutylxanthine (IBMX), 0.25 μM dexamethasone, 5 μg/ml insulin (bovine/human), 10 mM HEPES buffer and fetal bovine serum (FBS) 10% by volume in Dulbecco's modified Eagle's medium (DMEM) was used for differentiation.
3T3 L1 fibroblasts were seeded in 24-well or 6-well plates at a density of 0.5-2×10^4 cells/well and were allowed to reach maximal confluency.
The confluent fibroblasts were exposed to culture medium for 2 days. After this period, fresh culture medium (DMEM) containing only insulin was used, 10% FBS was added and cultured for 4 days with change of medium every 2 days. After 7 days the cultures received DMEM containing 10% FBS with no exposure to insulin. By the end of 8-10 days, more than 95% of the cells have become differentiated into adipocytes.
The mature adipocytes were exposed to dexamethasone, 100 nM added in ethanol, in culture medium and incubated for 2 days. On the third day, solution of test compound was added along with 100 nM dexamethasone containing medium for 4 days with a change in medium after every 2 days. Vehicle control contained 1% v/v of DMSO. Rosiglitazone was used as a standard and was added at a concentration of 0.1 μM in DMSO, along with 100 nM dexamethasone containing medium for 4 days with a change in medium after every 2 days. After a total period of 6 days, the cells were processed for glucose uptake as follows.
The insulin resistant adipocytes were exposed to serum-free DMEM containing 0.1% bovine serum albumin for 3-4 hours at 37° C. in CO2 atmosphere. The test compound was also present during this period. After 3-4 hours, the medium was aspirated and replaced with Kreb's Ringer phosphate (KRP) buffer at pH 7.4 and with human/porcine insulin, 200 nM. The cells were incubated for 30 minutes at 37° C. At the end of 30 minutes, 0.05 or 0.1 μCi of ^14C-2-deoxyglucose was added to each well of either 24-well or 6-well plates respectively and was incubated for exactly 5 minutes. After exactly 5 minutes, the plates were transferred to ice trays and medium was rapidly aspirated. […]

3T3 L1 fibroblasts = assay: Adipogenesis assay (phenotype-based primary screen); type: cell-based, mouse; conditions: test compound 20 μg/ml plus 5 μg/ml insulin, 8 days
Description: The phenotype-based assay used for screening the test compounds in the first screening step is an adipogenesis assay. Any of a variety of adipogenesis assays can be employed. Suitable adipogenesis assays can employ fibroblasts 3T3-L1, which can be derived from mouse and insulin, for example, of either human, porcine or bovine origin. The test compounds can be dissolved at a suitable concentration (e.g., 20 μg/ml) in a suitable solvent such as DMSO. Fibroblasts can be grown in 96-well plates containing sufficient cells, for example 5×10^4 cells/well, that are cultured in nutrient medium along with 5 μg/ml of insulin. After 3 days of incubation in CO2 incubators at 37° C., the nutrient medium with compounds is removed and fresh medium is exposed to the cells. After 8 days, the ability of compounds to potentiate insulin effect on transformation into fat filled cells, adipocytes, was assessed by observing under an inverted microscope. The lipid droplets are stained with Oil red O and percentage of stained cells is determined (e.g., estimated).
Compounds that caused the formation of adipocytes by more than 5 times the vehicle are termed as actives.
The assay was designed as in the reference J. Bio. […]
At the end of 8 days, the number of fat filled adipocytes formed in each well was assessed by observing under microscope. […]

`CCOC(=O)c1ccc(C(=N)NC(=O)OC)cc1C` [Compound 9, 4-(Imino-methoxycarbonylaminomethyl)-2-methyl-benzoic acid ethyl ester] was tested, and the “activity in insulin resistance assay (cut off 1.5-fold of vehicle)” value ([1]; insulin resistant adipocytes, glucose uptake) was “inactive”, the “% of Rosiglitazone (comparison with Rosiglitazone)” value ([1]; test compound 10 μM/mL versus Rosiglitazone 0.1 μM) was “NIL” and the “Fold vehicle (fold activity over vehicle)” value ([1]; test compound 10 μM/mL, glucose uptake with 200 nM insulin, vehicle = 1.0) was 1.01 ± 0.27. For the same compound, the “activity in adipogenesis assay (active = adipocytes more than 5 times the vehicle)” value (3T3 L1 fibroblasts) was “inactive”.
